Source: paper PMC10818546, “CYP1-Activation and Anticancer Properties of Synthetic Methoxylated Resveratrol Analogues” (Molecules, 2024)

Each compound was assayed on MCF7 (assay: MTT cytotoxicity assay, MCF7 cells (uninduced)). Settings: Homo sapiens, MCF7, 96 h, MTT assay, 96 h incubation, 37 °C, means of quadruplicate; read-out: IC50 MCF7.
Assay type: cell-based, human
Method: (§1) The antiproliferative activity of the resveratrol analogues was investigated using a human breast cell line panel, which has been characterised for CYP1 expression in our laboratories. IC50 values for both cis- and trans-isomers were determined using a standard 3-[4,5-dimethylthiazol-2-yl]-2,5-diphenyl tetrazolium bromide (MTT) cell viability assay and are shown in Table 1 (trans-stilbene analogues) and Table 2 (cis-stilbene analogues).
(§2) MCF7 cells are both ER positive and Ah receptor positive and have been well documented for their CYP1 expression, and it is known that treatment with TCDD elevates CYP1A1 and CYP1B1 expression. The cells were treated with DMSO (0.1%) for 24 h for constitutive expression, whereas for inducible CYP1 expression, the cells were treated with TCDD (10 nM) for 24 h.
(§3) A standard MTT (3-[4,5-dimethylthiazol-2-yl]-2,5-diphenyl tetrazolium bromide) cell viability assay was employed to evaluate the cytotoxicity of the stilbenes prepared. The MTT assay is a rapid quantitative spectrophotometric method for determining cell growth (viability) due to necrosis or apoptosis in monolayer-cultured cell lines in response to external factors. It is widely employed to evaluate the cytotoxicity of potential medicinal agents.
(§4) MCF7 cells were grown in RPMI-1640 medium with phenol red and 10% (v/v) heat-inactivated (heated to 56 °C for 45 min) foetal calf serum. MDA-468 cells were grown in RPMI-1640 medium with 10% (v/v) heat-inactivated foetal calf serum and L-glutamine (2 mM) without phenol red. MCF-10A cells were grown in Dulbecco’s modified Eagle’s medium/ Ham’s F-12 medium (1:1) with 5% (v/v) heat-inactivated foetal calf serum, epidermal growth factor (20 ng/mL), insulin ([…]) and hydrocortisone (500 ng/mL). Cells were maintained at 37 °C, 5% CO2/95% air with 100% humidity and passaged every 2–3 days using trypsin EDTA solution (0.25% w/v). Adhered cells at sub confluence were harvested for experimental use.
(§5) Aliquots of cell suspensions (100 µL at 2 × 10^3 cells per ml) were dispensed into sterile 96-well microtiter flat-bottomed plates. For the MDA468 and MCF10A cell lines, the plates were incubated at 37 °C, 5% CO2/95% air with 100% humidity for 24 h prior to the addition of test compounds. For MCF7 cells, after allowing approximately 4 h for cells to adhere, 100 µL of medium containing TCDD (from 100 mM stock in DMSO) or medium with 0.2% (v/v) DMSO was added to give a final concentration of 10 nM TCDD and 0.1% (v/v) DMSO. After 24 h, the medium was aspirated and replaced with fresh medium (100 µL) before the addition of test compounds.
(§6) Then, 100 µL aliquots of test compounds were added within 30 min into the wells from a 100 mM stock solution in DMSO and serially diluted to give final concentrations of […], 0.01, 0.003, 0.001 and 0.0003 µM. […] The cells were allowed to grow for 96 h at 5% CO2, 37 °C, to give 80–90% confluence in the control wells, after which 50 µL of 2 mg/mL MTT (final concentration 0.4 mg/mL) in sterile phosphate buffer was added to each well and the plates were further incubated for 2 h. All medium was aspirated and the formazan precipitate generated by viable cells was solubilised by 150 µL of DMSO. All the plates were vortexed and the absorbance at 540 nm was determined using a SpectraMax M5 plate reader (Molecular Devices, Wokingham, UK).
(§7) Results were expressed as a percentage of the control value versus the negative logarithm of the molar drug concentration range using GraphPad Prism (Version 5.00). Relative toxicities of each compound within each cell line were expressed as 50% of growth inhibition (IC50). All determinations were carried out in quadruplicate.

Compound | IC50 [µM]
COc1cc(/C=C\c2ccc(I)cc2)cc(OC)c1OC [DMU510] | 0.06
COc1ccc(CCc2cc(OC)c(OC)c(OC)c2)cc1 [DMU224] | 0.06
COc1ccc(/C=C\c2ccc(OC)cc2)cc1 [DMU265] | 25
COc1cc(/C=C/c2ccc(I)cc2)cc(OC)c1OC [DMU509] | 15
COc1ccc(/C=C/c2cc(OC)c(OC)c(OC)c2)c(OC)c1 [DMU219] | 1.7
COc1cc(/C=C/c2ccc(O)cc2)cc(OC)c1O [DMU295] | 50
COc1ccc(/C=C\c2cc(OC)c(OC)c(OC)c2)cc1O [CA4, combretastatin A4, reference compound] | 0.002
COc1ccc(/C=C/c2cc(OC)c(O)c(OC)c2)cc1O [DMU293] | 100
COc1ccc(/C=C\c2cccc(C)c2)cc1 [DMU216C] | 26
COc1ccc(/C=C/c2cc(OC)c(O)c(OC)c2)cc1 [DMU291] | 20
COc1ccc2cc(/C=C/c3cc(OC)c(OC)c(OC)c3)ccc2c1 [DMU567] | 100
COc1ccc(/C=C\c2cc(OC)c(OC)c(OC)c2)c(OC)c1 [DMU222] | 0.06
COc1ccc(/C=C\c2cc(OC)c(OC)c(OC)c2)cc1OC [DMU1024] | 9
COc1cc(/C=C/c2ccc(O)cc2)cc(OC)c1OC [DMU281] | 30

Same assay, conditions: MTT assay, 96 h incubation, 37 °C, means of quadruplicate; read-out: IC50 MCF7

Compound | IC50 [µM]
COc1ccc(/C=C\c2cc(OC)c(OC)c(OC)c2)c(OC)c1 [DMU222] | 0.07

What follows are compounds tested on MCF7 (TCDD) (assay: MTT cytotoxicity assay, TCDD-induced MCF7 cells). Settings: Homo sapiens, MCF7, MTT assay, 96 h incubation; cells induced with 10 nM TCDD for 24 h; read-out: IC50 MCF7 (TCDD).
Assay type: cell-based, human
Method: as §1, §2, §3, §4, §5, §6, §7

Compound | IC50 [µM]
COc1cc(/C=C\c2ccc(I)cc2)cc(OC)c1OC [DMU510] | 0.06
COc1ccc(CCc2cc(OC)c(OC)c(OC)c2)cc1 [DMU224] | 0.06
COc1ccc(/C=C\c2ccc(OC)cc2)cc1 [DMU265] | 20
COc1cc(/C=C/c2ccc(I)cc2)cc(OC)c1OC [DMU509] | 15
COc1ccc(/C=C/c2cc(OC)c(OC)c(OC)c2)c(OC)c1 [DMU219] | 1.4
COc1cc(/C=C/c2ccc(O)cc2)cc(OC)c1O [DMU295] | 4.2
COc1ccc(/C=C\c2cc(OC)c(OC)c(OC)c2)cc1O [CA4, combretastatin A4, reference compound] | 0.002
COc1ccc(/C=C/c2cc(OC)c(O)c(OC)c2)cc1O [DMU293] | 100
COc1ccc(/C=C\c2cccc(C)c2)cc1 [DMU216C] | 30
COc1ccc(/C=C/c2cc(OC)c(O)c(OC)c2)cc1 [DMU291] | 20
COc1ccc2cc(/C=C/c3cc(OC)c(OC)c(OC)c3)ccc2c1 [DMU567] | 42
COc1ccc(/C=C\c2cc(OC)c(OC)c(OC)c2)c(OC)c1 [DMU222] | 0.005
COc1ccc(/C=C\c2cc(OC)c(OC)c(OC)c2)cc1OC [DMU1024] | 9
COc1cc(/C=C/c2ccc(O)cc2)cc(OC)c1OC [DMU281] | 28

Same assay, conditions: MTT assay, 96 h incubation; cells induced with 10 nM TCDD for 24 h; read-out: IC50 MCF7 (TCDD)

Compound | IC50 [µM]
COc1ccc(/C=C\c2cc(OC)c(OC)c(OC)c2)c(OC)c1 [DMU222] | 0.007

The compounds below were run on MCF10A (assay: MTT cytotoxicity assay, MCF10A non-tumour control cells). Settings: Homo sapiens, MCF-10A, 96 h, MTT assay, 96 h incubation, non-tumour control cells; read-out: IC50 MCF10A.
Assay type: cell-based
Method: as §1
MCF10A cells are non-tumourigenic human mammary epithelial in origin which have been spontaneously immortalised without chemical intervention. CYP1 activity in MCF10A cells is negligible. […] Thus, MCF10A cell line is commonly used as a control in cytotoxicity assays.
as §3, §4, §5, §6, §7

Compound | IC50 [µM]
COc1cc(/C=C\c2ccc(I)cc2)cc(OC)c1OC [DMU510] | 0.01
COc1ccc(CCc2cc(OC)c(OC)c(OC)c2)cc1 [DMU224] | 0.06
COc1ccc(/C=C\c2ccc(OC)cc2)cc1 [DMU265] | > 100
COc1cc(/C=C/c2ccc(I)cc2)cc(OC)c1OC [DMU509] | 13
COc1ccc(/C=C/c2cc(OC)c(OC)c(OC)c2)c(OC)c1 [DMU219] | 1.4
COc1cc(/C=C/c2ccc(O)cc2)cc(OC)c1O [DMU295] | 51
COc1ccc(/C=C\c2cc(OC)c(OC)c(OC)c2)cc1O [CA4, combretastatin A4, reference compound] | 0.002
COc1ccc(/C=C/c2cc(OC)c(O)c(OC)c2)cc1O [DMU293] | 110
COc1ccc(/C=C\c2cccc(C)c2)cc1 [DMU216C] | > 100
COc1ccc(/C=C/c2cc(OC)c(O)c(OC)c2)cc1 [DMU291] | 100
COc1ccc2cc(/C=C/c3cc(OC)c(OC)c(OC)c3)ccc2c1 [DMU567] | 0.11
COc1ccc(/C=C\c2cc(OC)c(OC)c(OC)c2)c(OC)c1 [DMU222] | 0.06
COc1ccc(/C=C\c2cc(OC)c(OC)c(OC)c2)cc1OC [DMU1024] | 10
COc1cc(/C=C/c2ccc(O)cc2)cc(OC)c1OC [DMU281] | 23

Each compound was assayed on MDA468 (assay: MTT cytotoxicity assay, MDA468 cells). Settings: Homo sapiens; MTT assay, 96 h incubation; read-out: IC50 MDA468.
Assay type: cell-based, human
Method: as §1
MDA468 cells represent an aggressive multi-drug-resistant tumour type and are ER negative but are aryl hydrocarbon (Ah) receptor positive in the presence of TCDD [46].
as §3, §4, §5, §6, §7

Compound | IC50 [µM]
COc1cc(/C=C\c2ccc(I)cc2)cc(OC)c1OC [DMU510] | 0.006
COc1ccc(CCc2cc(OC)c(OC)c(OC)c2)cc1 [DMU224] | 0.005
COc1ccc(/C=C\c2ccc(OC)cc2)cc1 [DMU265] | > 100
COc1cc(/C=C/c2ccc(I)cc2)cc(OC)c1OC [DMU509] | 13
COc1ccc(/C=C/c2cc(OC)c(OC)c(OC)c2)c(OC)c1 [DMU219] | 0.8
COc1cc(/C=C/c2ccc(O)cc2)cc(OC)c1O [DMU295] | 5.1
COc1ccc(/C=C\c2cc(OC)c(OC)c(OC)c2)cc1O [CA4, combretastatin A4, reference compound] | 0.003
COc1ccc(/C=C/c2cc(OC)c(O)c(OC)c2)cc1O [DMU293] | 10
COc1ccc(/C=C\c2cccc(C)c2)cc1 [DMU216C] | > 100
COc1ccc(/C=C/c2cc(OC)c(O)c(OC)c2)cc1 [DMU291] | 1
COc1ccc2cc(/C=C/c3cc(OC)c(OC)c(OC)c3)ccc2c1 [DMU567] | 0.04
COc1ccc(/C=C\c2cc(OC)c(OC)c(OC)c2)c(OC)c1 [DMU222] | 0.005
COc1ccc(/C=C\c2cc(OC)c(OC)c(OC)c2)cc1OC [DMU1024] | 6
COc1cc(/C=C/c2ccc(O)cc2)cc(OC)c1OC [DMU281] | 3.6

Same assay, conditions: ratio of IC50 values

Compound | TS = tumour selectivity = IC50 MCF10A/IC50 MDA468
COc1cc(/C=C\c2ccc(I)cc2)cc(OC)c1OC [DMU510] | 2
COc1cc(/C=C/c2ccc(I)cc2)cc(OC)c1OC [DMU509] | 1
COc1ccc(/C=C/c2cc(OC)c(OC)c(OC)c2)c(OC)c1 [DMU219] | 2
COc1cc(/C=C/c2ccc(O)cc2)cc(OC)c1O [DMU295] | 10
COc1ccc(/C=C\c2cc(OC)c(OC)c(OC)c2)cc1O [CA4, combretastatin A4, reference compound] | 0.7
COc1ccc(/C=C/c2cc(OC)c(O)c(OC)c2)cc1O [DMU293] | 10
COc1ccc(/C=C/c2cc(OC)c(O)c(OC)c2)cc1 [DMU291] | 100
COc1ccc2cc(/C=C/c3cc(OC)c(OC)c(OC)c3)ccc2c1 [DMU567] | three
COc1ccc(/C=C\c2cc(OC)c(OC)c(OC)c2)c(OC)c1 [DMU222] | 10
COc1ccc(/C=C\c2cc(OC)c(OC)c(OC)c2)cc1OC [DMU1024] | 2
COc1cc(/C=C/c2ccc(O)cc2)cc(OC)c1OC [DMU281] | 6

Same assay, conditions: ratio of IC50 values; listed as 567

Compound | TS = tumour selectivity = IC50 MCF10A/IC50 MDA468
COc1ccc2cc(/C=C/c3cc(OC)c(OC)c(OC)c3)ccc2c1 [DMU567] | 3
